Values of other authors in patent US20120076863A1, “NANOPARTICULATE STABILIZED ANTI-HYPERTENSIVE COMPOSITIONS” (Elan Pharma International Ltd., priority 2005, published 2012).
Counter-ions that a name gives are not always drawn.

How the values were obtained:
[1] = active metabolite of temocapril

For `CCOC(=O)[C@H](CCc1ccccc1)N[C@H]1CS[C@H](c2cccs2)CN(CC(=O)O)C1=O` [Temocapril hydrochloride, α-{(2S,6R)-6-[(1S)-1-ethoxy-carbonyl-3-phenyl-propyl]amino-5-oxo-2-(2-thienyl)perhydro-1,4-thiazepin-4yl}acetic acid hydrochloride], the solubility in water is listed as “only slightly soluble”.
In the case of `O=C(O)CN1C[C@@H](c2cccs2)SC[C@H](N[C@@H](CCc2ccccc2)C(=O)O)C1=O` [temocaprilat], the excretion route [1] is listed as “excreted predominantly in bile”.
